Assay results as given in the supplement of paper PMC10132981, “Formate overflow drives toxic folate trapping in MTHFD1 inhibited cancer cells” (Nature Metabolism, 2023).
± gives the standard deviation of the averaged measurements.

Columns and labels:
SW620 MTHFD2 -/- = experiment: EC50 for viability (resazurin, 96 h); details: RPMI+GlutaMAX (5% dFBS, 1% P/S)
HCT116 = experiment: EC50 for viability (resazurin, 96 h); details: RPMI+GlutaMAX (10% FBS, 1% P/S)
SW620 MTHFD2-/- = experiment: EC50 for viability (resazurin, 96 h); details: RPMI+GlutaMAX (5% dFBS, 1% P/S)
SW620 WT = experiment: EC50 for viability (resazurin, 96 h); details: RPMI+GlutaMAX (5% dFBS, 1% P/S)
SW620 [1] = experiment: EC50 for viability (resazurin, 96 h)
SW620 [2] = experiment: cell viability relative to lowest-dose well (resazurin, 96 h); higher = more viable; details: RPMI + 10% FBS
Procedure, shortened: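 Viability values are expressed as percent of the lowest-dose well, using independent replicate cultures. HCT116 cells at 500 cells/well or SW620 cells at 1,000 cells/well were plated in 384-well plates in 50 µl RPMI containing 10% FBS and a metabolite supplement, then given compound dilution series dispensed from 10 mM DMSO stocks. After 96 h at 37 °C and 5% CO2, resazurin (10 µg ml^−1) conversion to resorufin was read by fluorescence at 595 nm after 5 h. Viability was read by resazurin-to-resorufin conversion and normalised to the lowest-dose vehicle well (=100%).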

[3] = metabolite supplement: Hypoxanthine
[4] = metabolite supplement: Sodium Formate
[5] = metabolite supplement: Thymidine
[6] = metabolite supplement: Thymidine + Sodium Formate

What does the source list for `CN(Cc1cnc2nc(N)nc(N)c2n1)c1ccc(C(=O)N[C@@H](CCC(=O)O)C(=O)O)cc1` [methotrexate]?
EC50 for viability (SW620 MTHFD2 -/-; [3]): 16.7 nM; EC50 for viability (SW620 MTHFD2 -/-; [4]): 10.6 nM; EC50 for viability (SW620 MTHFD2 -/-; [5]): 2.67 ± 1.6 nM; EC50 for viability (SW620 MTHFD2 -/-; [6]): 9.38 nM; EC50 for viability (SW620 MTHFD2 -/-; metabolite supplement: Vehicle): 2.33 ± 2.8 nM; EC50 for viability (HCT116; [3]): 20.3 nM; EC50 for viability (HCT116; [5]): 12.6 nM; EC50 for viability (SW620 MTHFD2-/-; metabolite supplement: Formate): 2.14 nM; EC50 for viability (SW620 MTHFD2-/-; [3]): 12 nM; EC50 for viability (SW620 MTHFD2-/-; metabolite supplement: Hypoxanthine + Formate): 12.9 nM; EC50 for viability (SW620 WT; metabolite supplement: Adenine): 31 nM; EC50 for viability (SW620 WT; metabolite supplement: Adenosine): 34.5 nM; EC50 for viability (SW620 WT; metabolite supplement: Guanosine): 19.8 nM; EC50 for viability (SW620 WT; [3]): 21.1 ± 0.86 nM; EC50 for viability (SW620 WT; metabolite supplement: Hypoxanthine + AICAr 10 µM): 18.1 nM; EC50 for viability (SW620 WT; metabolite supplement: Hypoxanthine + AICAr 30 µM): 21.9 nM; EC50 for viability (SW620 WT; metabolite supplement: Hypoxanthine + AICAr 50 µM): 14.2 nM; EC50 for viability (SW620 WT; metabolite supplement: Hypoxanthine + AICAr 100 µM): 11.3 nM; EC50 for viability (SW620 WT; [4]): 6.74 nM; EC50 for viability (SW620 WT; [5]): 8.47 ± 1.8 nM; EC50 for viability (SW620 WT; [6]): 6.79 nM; EC50 for viability (SW620 WT; metabolite supplement: Vehicle): 6.53 ± 0.56 nM; EC50 for viability (SW620 [1]; HPLM (5% dFBS, 1% P/S), metabolite supplement: Vehicle): 27 nM; EC50 for viability (SW620 [1]; RPMI+GlutaMAX (5% dFBS, 1% P/S), metabolite supplement: 50 µM Hypoxanthine): 21.8 ± 2.6 nM; EC50 for viability (SW620 [1]; RPMI+GlutaMAX (5% dFBS, 1% P/S), metabolite supplement: Vehicle): 8.7 ± 2.5 nM; EC50 for viability (SW620 [1]; RPMI+GlutaMAX (10% FBS, 1% P/S), metabolite supplement: Folic acid): 96.3 nM; EC50 for viability (SW620 [1]; RPMI+GlutaMAX (10% FBS, 1% P/S), metabolite supplement: Folinic acid): 366 nM; EC50 for viability (SW620 [1]; RPMI+GlutaMAX (10% FBS, 1% P/S), metabolite supplement: Hypoxanthine): 26.2 nM; EC50 for viability (SW620 [1]; RPMI+GlutaMAX (10% FBS, 1% P/S), metabolite supplement: Thymidine): 12.4 ± 2.1 nM; EC50 for viability (SW620 [1]; RPMI+GlutaMAX (10% FBS, 1% P/S), metabolite supplement: Thymidine + Folic acid): 81.8 nM; EC50 for viability (SW620 [1]; RPMI+GlutaMAX (10% FBS, 1% P/S), metabolite supplement: Thymidine + Folinic acid): 388 nM; EC50 for viability (SW620 [1]; RPMI+GlutaMAX (10% FBS, 1% P/S), metabolite supplement: Vehicle): 11.6 ± 4.3 nM; cell viability (SW620 [2]; 0.001 µM, metabolite supplement: 50uM thymidine + 250uM hypoxanthine): 95.7 ± 5.2%; cell viability (SW620 [2]; 0.001 µM, metabolite supplement: 50uM thymidine): 96.3 ± 4%; cell viability (SW620 [2]; 0.001 µM, metabolite supplement: 250uM hypoxanthine): 98.8 ± 6.7%; cell viability (SW620 [2]; 0.001 µM, metabolite supplement: vehicle): 98 ± 2.8%; cell viability (SW620 [2]; 0.00278 µM, metabolite supplement: 50uM thymidine + 250uM hypoxanthine): 94.5 ± 5.3%; cell viability (SW620 [2]; 0.00278 µM, metabolite supplement: 50uM thymidine): 95 ± 7.7%; cell viability (SW620 [2]; 0.00278 µM, metabolite supplement: 250uM hypoxanthine): 99.5 ± 3.2%; cell viability (SW620 [2]; 0.00278 µM, metabolite supplement: vehicle): 96.3 ± 3.9%; cell viability (SW620 [2]; 0.00774 µM, metabolite supplement: 50uM thymidine + 250uM hypoxanthine): 93.4 ± 7.8%; cell viability (SW620 [2]; 0.00774 µM, metabolite supplement: 50uM thymidine): 76.7 ± 16%; cell viability (SW620 [2]; 0.00774 µM, metabolite supplement: 250uM hypoxanthine): 96.2 ± 4.7%; cell viability (SW620 [2]; 0.00774 µM, metabolite supplement: vehicle): 79.3 ± 6.6%; cell viability (SW620 [2]; 0.0215 µM, metabolite supplement: 50uM thymidine + 250uM hypoxanthine): 97.4 ± 6.6%; cell viability (SW620 [2]; 0.0215 µM, metabolite supplement: 50uM thymidine): 42.2 ± 12%; cell viability (SW620 [2]; 0.0215 µM, metabolite supplement: 250uM hypoxanthine): 75.1 ± 2.8%; cell viability (SW620 [2]; 0.0215 µM, metabolite supplement: vehicle): 60.4 ± 4.5%; cell viability (SW620 [2]; 0.0599 µM, metabolite supplement: 50uM thymidine + 250uM hypoxanthine): 90.2 ± 11%; cell viability (SW620 [2]; 0.0599 µM, metabolite supplement: 50uM thymidine): 34.3 ± 11%; cell viability (SW620 [2]; 0.0599 µM, metabolite supplement: 250uM hypoxanthine): 32.8 ± 7.5%; cell viability (SW620 [2]; 0.0599 µM, metabolite supplement: vehicle): 33.7 ± 6.8%; cell viability (SW620 [2]; 0.167 µM, metabolite supplement: 50uM thymidine + 250uM hypoxanthine): 96.4 ± 8.1%; cell viability (SW620 [2]; 0.167 µM, metabolite supplement: 50uM thymidine): 34.8 ± 9.7%; cell viability (SW620 [2]; 0.167 µM, metabolite supplement: 250uM hypoxanthine): 28 ± 2.8%; cell viability (SW620 [2]; 0.167 µM, metabolite supplement: vehicle): 26.9 ± 1.6%; cell viability (SW620 [2]; 0.464 µM, metabolite supplement: 50uM thymidine + 250uM hypoxanthine): 94.7 ± 8.8%; cell viability (SW620 [2]; 0.464 µM, metabolite supplement: 50uM thymidine): 33.1 ± 11%; cell viability (SW620 [2]; 0.464 µM, metabolite supplement: 250uM hypoxanthine): 28.3 ± 3.3%; cell viability (SW620 [2]; 0.464 µM, metabolite supplement: vehicle): 27 ± 1.2%; cell viability (SW620 [2]; 1.29 µM, metabolite supplement: 50uM thymidine + 250uM hypoxanthine): 87.5 ± 18%; cell viability (SW620 [2]; 1.29 µM, metabolite supplement: 50uM thymidine): 32.6 ± 10%; cell viability (SW620 [2]; 1.29 µM, metabolite supplement: 250uM hypoxanthine): 28.4 ± 2.6%; cell viability (SW620 [2]; 1.29 µM, metabolite supplement: vehicle): 26.4 ± 1.5%; cell viability (SW620 [2]; 3.59 µM, metabolite supplement: 50uM thymidine + 250uM hypoxanthine): 83.6 ± 16%; cell viability (SW620 [2]; 3.59 µM, metabolite supplement: 50uM thymidine): 30.9 ± 11%; cell viability (SW620 [2]; 3.59 µM, metabolite supplement: 250uM hypoxanthine): 29.6 ± 0.61%; cell viability (SW620 [2]; 3.59 µM, metabolite supplement: vehicle): 28.3 ± 1.5%; cell viability (SW620 [2]; 10 µM, metabolite supplement: 50uM thymidine + 250uM hypoxanthine): 83.6 ± 16%; cell viability (SW620 [2]; 10 µM, metabolite supplement: 50uM thymidine): 30.5 ± 11%; cell viability (SW620 [2]; 10 µM, metabolite supplement: 250uM hypoxanthine): 29.5 ± 1.9%; cell viability (SW620 [2]; 10 µM, metabolite supplement: vehicle): 29.3 ± 1.6%
